Measurements: ChEMBL document CHEMBL5212743, “Selectivity Literature for EUbOPEN Chemogenomics Library wave 3” (2023)
pIC50, pKd, pKi: −log10 of the molar value.

Key:
[1] = molecular target: T1, Adenosine receptor A1 (Homo sapiens) (UniProt P30542); assay: Selectivity interaction (CEREP panel (LeadProfilingScreen Eurofins, panel of receptors, ion channels, and other enzymes)) EUB0000191c ADORA1; conditions: at 10 µM
T1 sequence (whole entry): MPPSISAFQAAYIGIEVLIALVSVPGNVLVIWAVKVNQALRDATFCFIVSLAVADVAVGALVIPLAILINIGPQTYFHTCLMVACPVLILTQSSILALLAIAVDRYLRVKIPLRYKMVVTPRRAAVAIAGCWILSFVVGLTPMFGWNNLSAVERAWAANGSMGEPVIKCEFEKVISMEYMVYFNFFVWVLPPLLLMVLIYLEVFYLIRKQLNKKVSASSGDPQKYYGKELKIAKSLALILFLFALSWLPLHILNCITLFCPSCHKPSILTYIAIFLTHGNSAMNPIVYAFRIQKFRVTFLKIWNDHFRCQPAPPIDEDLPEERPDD

[2] = molecular target: T2, Gamma-aminobutyric acid receptor subunit alpha-1 (Homo sapiens) (UniProt P14867); assay: Selectivity interaction (CEREP panel (LeadProfilingScreen Eurofins, panel of receptors, ion channels, and other enzymes)) EUB0000191c GABRA1; conditions: at 10 µM
T2 sequence (whole entry): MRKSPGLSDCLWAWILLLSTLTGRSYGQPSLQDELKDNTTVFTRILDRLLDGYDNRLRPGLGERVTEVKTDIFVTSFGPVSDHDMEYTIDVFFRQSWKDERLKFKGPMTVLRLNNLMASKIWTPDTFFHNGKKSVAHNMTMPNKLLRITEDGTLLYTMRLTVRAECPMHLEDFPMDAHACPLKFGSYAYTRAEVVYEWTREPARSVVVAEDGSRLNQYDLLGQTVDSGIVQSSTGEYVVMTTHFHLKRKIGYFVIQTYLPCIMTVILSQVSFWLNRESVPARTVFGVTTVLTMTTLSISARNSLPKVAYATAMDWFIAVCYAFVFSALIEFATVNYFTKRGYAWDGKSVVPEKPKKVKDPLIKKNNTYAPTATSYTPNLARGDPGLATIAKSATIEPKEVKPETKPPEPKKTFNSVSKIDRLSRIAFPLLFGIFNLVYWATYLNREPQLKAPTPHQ

[3] = molecular target: cGMP-dependent 3',5'-cyclic phosphodiesterase (Homo sapiens) (UniProt O00408); assay: Selectivity interaction (CEREP panel (LeadProfilingScreen Eurofins, panel of receptors, ion channels, and other enzymes)) EUB0000191c PDE2A; conditions: at 10 µM
cGMP-dependent 3',5'-cyclic phosphodiesterase (Homo sapiens), sequence (O00408 whole entry): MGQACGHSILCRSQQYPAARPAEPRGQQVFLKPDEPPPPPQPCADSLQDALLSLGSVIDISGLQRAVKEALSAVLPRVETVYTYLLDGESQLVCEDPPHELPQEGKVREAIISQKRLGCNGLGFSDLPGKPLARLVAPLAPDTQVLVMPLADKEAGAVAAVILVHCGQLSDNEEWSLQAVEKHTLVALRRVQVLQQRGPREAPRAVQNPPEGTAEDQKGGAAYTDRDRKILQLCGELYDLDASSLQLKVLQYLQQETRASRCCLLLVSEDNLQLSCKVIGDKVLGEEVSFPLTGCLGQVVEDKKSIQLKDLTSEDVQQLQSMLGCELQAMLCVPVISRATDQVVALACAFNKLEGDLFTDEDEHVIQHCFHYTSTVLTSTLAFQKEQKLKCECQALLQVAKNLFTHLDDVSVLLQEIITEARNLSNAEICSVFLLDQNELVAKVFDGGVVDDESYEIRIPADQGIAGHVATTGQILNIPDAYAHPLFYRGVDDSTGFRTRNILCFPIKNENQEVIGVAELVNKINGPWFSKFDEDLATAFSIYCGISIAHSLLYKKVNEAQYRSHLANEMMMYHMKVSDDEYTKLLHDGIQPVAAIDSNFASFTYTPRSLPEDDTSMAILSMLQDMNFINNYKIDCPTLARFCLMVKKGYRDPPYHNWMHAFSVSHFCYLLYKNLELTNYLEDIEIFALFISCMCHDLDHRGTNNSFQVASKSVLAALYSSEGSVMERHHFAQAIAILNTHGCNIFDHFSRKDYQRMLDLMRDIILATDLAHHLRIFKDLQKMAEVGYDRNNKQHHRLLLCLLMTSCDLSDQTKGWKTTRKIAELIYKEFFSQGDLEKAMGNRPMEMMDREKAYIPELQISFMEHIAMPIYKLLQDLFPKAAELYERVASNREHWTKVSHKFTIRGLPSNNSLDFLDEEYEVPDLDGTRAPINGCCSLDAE

[4] = molecular target: cGMP-specific 3',5'-cyclic phosphodiesterase (Homo sapiens) (UniProt O76074); assay: Selectivity interaction (CEREP panel (LeadProfilingScreen Eurofins, panel of receptors, ion channels, and other enzymes)) EUB0000191c PDE5A; conditions: at 10 µM
[5] = molecular target: T3, Bromodomain-containing protein 4 (Homo sapiens, UniProt O60885); assay: (§1) Selectivity interaction (TR-FRET assay) EUB0000191c BRD4
[6] = molecular target: T3, Bromodomain-containing protein 4; assay: as §1; remark: listed apart in the source
[7] = molecular target: T4, Bromodomain-containing protein 7 (Homo sapiens) (UniProt Q9NPI1); assay: Selectivity interaction (Bromodomain panel (DSF assay)) EUB0000191c BRD7
T4 sequence (whole entry): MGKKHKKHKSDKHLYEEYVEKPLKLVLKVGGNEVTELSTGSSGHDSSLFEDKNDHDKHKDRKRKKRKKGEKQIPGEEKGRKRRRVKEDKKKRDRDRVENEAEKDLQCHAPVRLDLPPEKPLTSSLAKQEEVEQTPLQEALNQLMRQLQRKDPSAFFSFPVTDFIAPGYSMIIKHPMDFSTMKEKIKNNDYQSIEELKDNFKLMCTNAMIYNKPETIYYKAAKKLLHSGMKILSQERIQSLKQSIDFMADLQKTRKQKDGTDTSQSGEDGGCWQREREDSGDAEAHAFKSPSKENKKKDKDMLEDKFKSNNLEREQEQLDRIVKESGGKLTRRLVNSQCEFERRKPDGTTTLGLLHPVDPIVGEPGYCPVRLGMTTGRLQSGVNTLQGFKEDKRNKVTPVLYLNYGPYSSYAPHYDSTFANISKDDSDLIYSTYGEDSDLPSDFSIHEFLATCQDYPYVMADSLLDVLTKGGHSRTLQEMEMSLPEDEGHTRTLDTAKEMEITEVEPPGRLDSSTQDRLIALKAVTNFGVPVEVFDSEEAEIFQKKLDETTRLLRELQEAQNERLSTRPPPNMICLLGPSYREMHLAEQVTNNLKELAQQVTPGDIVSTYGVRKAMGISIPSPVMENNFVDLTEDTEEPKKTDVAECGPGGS

[8] = molecular target: T5, Chromatin remodeling regulator CECR2 (Homo sapiens, UniProt Q9BXF3); assay: Selectivity interaction (Bromodomain panel (DSF assay)) EUB0000191c CECR2
[9] = molecular target: T5, Chromatin remodeling regulator CECR2; assay: Selectivity interaction (ITC) EUB0000191c CECR2
CREB-binding protein = CREB-binding protein (Homo sapiens, UniProt Q92793); assay: Selectivity interaction (BROMOscan (DiscoverX)) EUB0000191c CREBBP; conditions: at 100 nM
[10] = molecular target: Histone acetyltransferase p300 (Homo sapiens) (UniProt Q09472); assay: Selectivity interaction (Bromodomain panel (DSF assay)) EUB0000191c EP300
[11] = molecular target: Transcription initiation factor TFIID subunit 1-like (Homo sapiens) (UniProt Q8IZX4); assay: Selectivity interaction (BROMOscan (DiscoverX)) EUB0000191c TAF1L; conditions: at 100 nM
[12] = molecular target: T6, Sodium-dependent dopamine transporter (Homo sapiens, UniProt Q01959); assay: (§2) Selectivity interaction (Eurofins-Panlabs radioligand binding assay) EUB0000716a SLC6A3
T6 sequence (Q01959 whole entry): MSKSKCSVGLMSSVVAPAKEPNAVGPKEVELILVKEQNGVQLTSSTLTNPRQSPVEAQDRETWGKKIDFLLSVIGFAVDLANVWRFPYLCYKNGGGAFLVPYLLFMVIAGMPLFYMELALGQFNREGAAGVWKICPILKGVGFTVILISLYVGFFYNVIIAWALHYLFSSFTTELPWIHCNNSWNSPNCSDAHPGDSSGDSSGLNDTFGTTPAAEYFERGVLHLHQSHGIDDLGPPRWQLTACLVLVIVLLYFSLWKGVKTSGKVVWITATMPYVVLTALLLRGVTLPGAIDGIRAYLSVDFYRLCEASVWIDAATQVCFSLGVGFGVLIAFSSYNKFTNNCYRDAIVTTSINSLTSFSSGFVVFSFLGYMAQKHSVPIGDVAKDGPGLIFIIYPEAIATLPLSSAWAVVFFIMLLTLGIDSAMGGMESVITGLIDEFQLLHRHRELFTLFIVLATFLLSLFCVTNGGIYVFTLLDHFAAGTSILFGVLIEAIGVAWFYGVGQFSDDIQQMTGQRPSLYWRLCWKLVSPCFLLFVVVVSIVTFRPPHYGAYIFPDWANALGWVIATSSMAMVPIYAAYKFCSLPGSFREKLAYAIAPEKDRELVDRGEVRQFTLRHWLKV

[13] = molecular target: T6, Sodium-dependent dopamine transporter; assay: as §2; remark: listed apart in the source
[14] = molecular target: T7, Serine/threonine-protein kinase LATS1 (Homo sapiens) (UniProt O95835); assay: Selectivity interaction (KinomeScan (DiscoverX)) EUB0000716a LATS1; conditions: at 100 nM
T7 sequence (whole entry): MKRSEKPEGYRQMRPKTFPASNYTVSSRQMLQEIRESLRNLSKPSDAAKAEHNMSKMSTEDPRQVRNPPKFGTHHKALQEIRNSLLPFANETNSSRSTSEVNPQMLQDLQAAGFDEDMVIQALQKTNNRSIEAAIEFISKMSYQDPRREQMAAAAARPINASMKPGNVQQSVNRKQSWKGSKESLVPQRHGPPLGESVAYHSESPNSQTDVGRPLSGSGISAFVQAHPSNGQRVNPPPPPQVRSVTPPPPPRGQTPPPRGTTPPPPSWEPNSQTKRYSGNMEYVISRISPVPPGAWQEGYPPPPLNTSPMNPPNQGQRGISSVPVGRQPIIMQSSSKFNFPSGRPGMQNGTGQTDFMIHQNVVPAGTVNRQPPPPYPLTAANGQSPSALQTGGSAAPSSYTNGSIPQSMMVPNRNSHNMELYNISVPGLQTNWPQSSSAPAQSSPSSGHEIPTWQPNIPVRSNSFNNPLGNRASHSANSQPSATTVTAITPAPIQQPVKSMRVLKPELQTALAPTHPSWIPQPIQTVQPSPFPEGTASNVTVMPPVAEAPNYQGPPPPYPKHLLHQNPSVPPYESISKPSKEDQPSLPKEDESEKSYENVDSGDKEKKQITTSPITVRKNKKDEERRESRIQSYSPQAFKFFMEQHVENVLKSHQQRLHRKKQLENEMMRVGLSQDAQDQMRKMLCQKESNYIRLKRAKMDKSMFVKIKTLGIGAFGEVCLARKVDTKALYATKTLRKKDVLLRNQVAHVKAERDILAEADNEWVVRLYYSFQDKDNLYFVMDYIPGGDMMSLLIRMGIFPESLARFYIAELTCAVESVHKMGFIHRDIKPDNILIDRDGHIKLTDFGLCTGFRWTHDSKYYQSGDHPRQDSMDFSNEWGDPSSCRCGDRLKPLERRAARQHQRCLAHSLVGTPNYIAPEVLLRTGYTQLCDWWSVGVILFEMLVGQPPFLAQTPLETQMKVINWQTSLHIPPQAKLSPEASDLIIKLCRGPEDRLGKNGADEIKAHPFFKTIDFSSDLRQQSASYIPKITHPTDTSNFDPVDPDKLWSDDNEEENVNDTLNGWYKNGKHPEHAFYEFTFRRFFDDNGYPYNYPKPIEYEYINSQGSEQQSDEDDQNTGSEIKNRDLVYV

[15] = molecular target: T8, Serine/threonine-protein kinase LATS2 (Homo sapiens) (UniProt Q9NRM7); assay: Selectivity interaction (KinomeScan (DiscoverX)) EUB0000716a LATS2; conditions: at 100 nM
T8 sequence (whole entry): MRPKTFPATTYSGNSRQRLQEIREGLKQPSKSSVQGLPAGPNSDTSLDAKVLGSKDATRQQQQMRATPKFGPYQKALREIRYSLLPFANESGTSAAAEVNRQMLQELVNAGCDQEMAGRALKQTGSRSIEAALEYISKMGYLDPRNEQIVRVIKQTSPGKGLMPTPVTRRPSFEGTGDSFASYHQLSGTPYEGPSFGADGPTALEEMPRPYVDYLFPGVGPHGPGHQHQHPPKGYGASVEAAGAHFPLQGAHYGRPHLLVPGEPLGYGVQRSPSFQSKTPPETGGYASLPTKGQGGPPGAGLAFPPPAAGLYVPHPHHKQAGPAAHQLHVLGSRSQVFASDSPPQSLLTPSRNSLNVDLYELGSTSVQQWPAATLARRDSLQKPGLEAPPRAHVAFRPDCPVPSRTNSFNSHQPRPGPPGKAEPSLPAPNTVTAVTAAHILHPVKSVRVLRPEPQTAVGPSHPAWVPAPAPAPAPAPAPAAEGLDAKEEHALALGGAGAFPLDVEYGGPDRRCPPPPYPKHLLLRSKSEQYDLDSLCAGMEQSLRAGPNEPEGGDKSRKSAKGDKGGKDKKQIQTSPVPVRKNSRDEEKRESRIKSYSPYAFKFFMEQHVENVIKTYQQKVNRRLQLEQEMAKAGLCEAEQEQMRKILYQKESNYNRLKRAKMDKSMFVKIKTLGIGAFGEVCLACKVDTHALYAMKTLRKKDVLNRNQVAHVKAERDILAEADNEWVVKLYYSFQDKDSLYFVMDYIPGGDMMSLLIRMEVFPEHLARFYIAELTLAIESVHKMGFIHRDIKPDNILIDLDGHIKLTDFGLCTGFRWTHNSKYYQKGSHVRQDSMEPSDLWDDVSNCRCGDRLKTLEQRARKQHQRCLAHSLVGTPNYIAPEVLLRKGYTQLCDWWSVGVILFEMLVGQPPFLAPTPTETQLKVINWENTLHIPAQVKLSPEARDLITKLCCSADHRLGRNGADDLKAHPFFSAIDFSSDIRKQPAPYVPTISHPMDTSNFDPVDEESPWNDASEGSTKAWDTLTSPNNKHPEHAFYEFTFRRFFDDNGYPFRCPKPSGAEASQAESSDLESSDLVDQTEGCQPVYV

[16] = molecular target: cAMP-dependent protein kinase catalytic subunit alpha (Homo sapiens, UniProt P17612); assay: Selectivity interaction (KinomeScan (DiscoverX)) EUB0000716a PRKACA; conditions: at 100 nM
[17] = molecular target: cAMP-dependent protein kinase catalytic subunit beta (Homo sapiens) (UniProt P22694); assay: Selectivity interaction (KinomeScan (DiscoverX)) EUB0000716a PRKACB; conditions: at 100 nM
[18] = molecular target: cGMP-dependent protein kinase 1 (Homo sapiens) (UniProt Q13976); assay: Selectivity interaction (KinomeScan (DiscoverX)) EUB0000716a PRKG1; conditions: at 100 nM
D(2) dopamine receptor = D(2) dopamine receptor (Homo sapiens, UniProt P14416); assay: Selectivity interaction (GPCR panel (PDSP screen)) EUB0000703a DRD2
[19] = molecular target: Kappa-type opioid receptor (Homo sapiens, UniProt P41145); assay: Selectivity interaction (GPCR panel (PDSP screen)) EUB0000703a OPRK1
[20] = molecular target: Sodium-dependent noradrenaline transporter (Homo sapiens, UniProt P23975); assay: Selectivity interaction (GPCR panel (PDSP screen)) EUB0000703a SLC6A2
[21] = molecular target: T9, Gamma-aminobutyric acid receptor subunit alpha-1 (Homo sapiens, UniProt P14867); assay: Selectivity interaction (GPCR panel (PDSP screen)) EUB0000703a GABRA1
T9 sequence (P14867 whole entry): T2 sequence (whole entry)

[22] = molecular target: Epithelial discoidin domain-containing receptor 1 (Homo sapiens, UniProt Q08345); assay: Selectivity interaction (KinomeScan (DiscoverX)) EUB0000703a DDR1; conditions: at 1 µM
[23] = molecular target: Discoidin domain-containing receptor 2 (Homo sapiens) (UniProt Q16832); assay: Selectivity interaction (KinomeScan (DiscoverX)) EUB0000703a DDR2; conditions: at 1 µM
Discoidin domain-containing receptor 2 (Homo sapiens), sequence (Q16832 whole entry, the tested form may be a part): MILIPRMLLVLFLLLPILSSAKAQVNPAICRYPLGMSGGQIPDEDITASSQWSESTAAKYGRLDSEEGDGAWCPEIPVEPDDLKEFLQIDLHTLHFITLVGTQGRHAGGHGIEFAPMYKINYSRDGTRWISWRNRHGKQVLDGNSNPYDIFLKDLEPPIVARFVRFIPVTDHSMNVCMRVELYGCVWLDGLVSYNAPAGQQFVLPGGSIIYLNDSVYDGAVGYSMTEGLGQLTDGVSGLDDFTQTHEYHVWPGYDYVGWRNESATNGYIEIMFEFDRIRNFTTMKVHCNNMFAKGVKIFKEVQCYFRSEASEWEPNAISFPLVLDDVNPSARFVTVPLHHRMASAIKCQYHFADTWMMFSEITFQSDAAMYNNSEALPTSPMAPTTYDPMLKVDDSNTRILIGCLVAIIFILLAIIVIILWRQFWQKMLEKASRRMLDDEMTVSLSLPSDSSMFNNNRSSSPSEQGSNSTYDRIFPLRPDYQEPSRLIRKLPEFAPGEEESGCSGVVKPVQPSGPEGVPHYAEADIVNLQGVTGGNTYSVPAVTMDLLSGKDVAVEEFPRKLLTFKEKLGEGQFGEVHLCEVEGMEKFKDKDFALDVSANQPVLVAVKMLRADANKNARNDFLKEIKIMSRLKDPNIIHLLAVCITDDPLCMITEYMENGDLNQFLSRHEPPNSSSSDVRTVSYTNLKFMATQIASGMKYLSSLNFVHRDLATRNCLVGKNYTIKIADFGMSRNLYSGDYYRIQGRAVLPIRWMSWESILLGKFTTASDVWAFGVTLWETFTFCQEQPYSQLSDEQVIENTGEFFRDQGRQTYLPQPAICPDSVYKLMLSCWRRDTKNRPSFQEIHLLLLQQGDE

[24] = molecular target: Tyrosine-protein kinase Lyn (Homo sapiens, UniProt P07948); assay: Selectivity interaction (NanoBRET assay (HEK293T cells)) EUB0000703a LYN
Tyrosine-protein kinase Lyn, sequence (P07948 whole entry): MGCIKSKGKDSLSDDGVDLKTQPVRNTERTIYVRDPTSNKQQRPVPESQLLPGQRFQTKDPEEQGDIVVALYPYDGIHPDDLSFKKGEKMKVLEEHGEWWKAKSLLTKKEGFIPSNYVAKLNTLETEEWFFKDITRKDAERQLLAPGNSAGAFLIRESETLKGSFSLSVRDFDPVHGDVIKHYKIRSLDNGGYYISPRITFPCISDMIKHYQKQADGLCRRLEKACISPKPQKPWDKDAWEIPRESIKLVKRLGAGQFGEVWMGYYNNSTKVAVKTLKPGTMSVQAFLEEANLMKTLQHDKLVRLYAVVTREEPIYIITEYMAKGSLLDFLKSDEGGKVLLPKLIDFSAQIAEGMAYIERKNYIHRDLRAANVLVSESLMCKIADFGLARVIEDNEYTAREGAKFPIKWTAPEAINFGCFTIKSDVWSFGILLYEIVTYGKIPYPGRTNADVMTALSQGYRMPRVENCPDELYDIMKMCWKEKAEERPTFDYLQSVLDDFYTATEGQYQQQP

[25] = test system: Serine/threonine-protein kinase B-raf (Homo sapiens), P15056 [V600E]; assay: Selectivity interaction (KinomeScan (DiscoverX)) EUB0000703a BRAF; conditions: at 1 µM
Serine/threonine-protein kinase B-raf (Homo sapiens), P15056 [V600E], sequence (P15056 whole entry V600E, canonical isoform): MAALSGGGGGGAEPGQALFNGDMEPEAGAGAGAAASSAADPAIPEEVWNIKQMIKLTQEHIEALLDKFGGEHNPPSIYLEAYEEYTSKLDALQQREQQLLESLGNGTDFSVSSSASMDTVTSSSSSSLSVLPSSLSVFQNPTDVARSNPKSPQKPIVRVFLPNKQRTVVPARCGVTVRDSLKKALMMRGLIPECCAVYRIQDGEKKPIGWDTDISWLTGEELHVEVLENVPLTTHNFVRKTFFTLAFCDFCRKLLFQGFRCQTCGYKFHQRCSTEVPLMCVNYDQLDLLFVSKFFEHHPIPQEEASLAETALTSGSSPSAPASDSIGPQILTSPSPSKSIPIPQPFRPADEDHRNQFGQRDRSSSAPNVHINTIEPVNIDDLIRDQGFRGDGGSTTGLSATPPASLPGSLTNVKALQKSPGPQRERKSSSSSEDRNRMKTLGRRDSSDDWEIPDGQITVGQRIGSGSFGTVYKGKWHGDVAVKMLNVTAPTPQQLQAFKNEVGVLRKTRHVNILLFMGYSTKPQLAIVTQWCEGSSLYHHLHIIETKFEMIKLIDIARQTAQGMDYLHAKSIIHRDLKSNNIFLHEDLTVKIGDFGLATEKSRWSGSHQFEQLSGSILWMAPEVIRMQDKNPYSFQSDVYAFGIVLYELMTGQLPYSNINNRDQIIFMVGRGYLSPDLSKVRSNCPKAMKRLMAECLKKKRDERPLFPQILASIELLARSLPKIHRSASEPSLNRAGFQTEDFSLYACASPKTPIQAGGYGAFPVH

[26] = molecular target: Phosphatidylinositol 4,5-bisphosphate 3-kinase catalytic subunit alpha isoform (Homo sapiens, UniProt P42336); assay: Selectivity interaction (KinomeScan (DiscoverX)) EUB0000703a PIK3CA; conditions: at 1 µM
Phosphatidylinositol 4,5-bisphosphate 3-kinase catalytic subunit alpha isoform, sequence (P42336 whole entry, canonical isoform): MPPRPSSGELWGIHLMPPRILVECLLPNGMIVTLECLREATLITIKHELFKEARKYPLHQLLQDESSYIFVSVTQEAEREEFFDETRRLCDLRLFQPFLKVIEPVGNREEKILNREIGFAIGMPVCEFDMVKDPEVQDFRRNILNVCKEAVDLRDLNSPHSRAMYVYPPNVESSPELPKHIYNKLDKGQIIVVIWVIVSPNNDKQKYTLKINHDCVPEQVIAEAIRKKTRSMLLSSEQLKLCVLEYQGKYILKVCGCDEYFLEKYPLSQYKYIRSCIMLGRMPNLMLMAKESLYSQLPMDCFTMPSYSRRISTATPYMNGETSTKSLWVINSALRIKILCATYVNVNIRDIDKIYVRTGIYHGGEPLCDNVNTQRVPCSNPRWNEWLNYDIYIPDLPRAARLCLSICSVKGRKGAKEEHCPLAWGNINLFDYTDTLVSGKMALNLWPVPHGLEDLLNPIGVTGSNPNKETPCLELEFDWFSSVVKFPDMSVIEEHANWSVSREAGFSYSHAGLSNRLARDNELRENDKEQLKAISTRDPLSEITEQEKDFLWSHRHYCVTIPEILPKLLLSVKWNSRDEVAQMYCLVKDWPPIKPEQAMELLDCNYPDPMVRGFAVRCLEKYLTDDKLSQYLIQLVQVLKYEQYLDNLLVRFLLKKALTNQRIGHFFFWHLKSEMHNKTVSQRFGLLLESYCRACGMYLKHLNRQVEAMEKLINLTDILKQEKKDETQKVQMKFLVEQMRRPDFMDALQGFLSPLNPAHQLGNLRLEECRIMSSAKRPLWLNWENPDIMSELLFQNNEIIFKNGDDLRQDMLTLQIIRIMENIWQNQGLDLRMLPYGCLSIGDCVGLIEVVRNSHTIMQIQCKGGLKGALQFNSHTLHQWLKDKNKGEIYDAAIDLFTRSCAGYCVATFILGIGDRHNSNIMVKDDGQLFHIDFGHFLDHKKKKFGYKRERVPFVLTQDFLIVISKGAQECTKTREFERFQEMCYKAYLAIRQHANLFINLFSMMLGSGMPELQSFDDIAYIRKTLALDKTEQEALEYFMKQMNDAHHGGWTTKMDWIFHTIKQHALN

Cc1cc2c(cc1N1C(=O)c3cccc4c(CCCO)ccc(c34)C1=O)n(C)c(=O)n2C
% of control [1]: 48% | % of control [2]: 23% | % of control [3]: 49% | % of control [4]: 2% | pIC50 [5]: < 4.82 | pIC50 [6]: < 4.70 | dTm [7]: 2.3 K | dTm [8]: 3.5 K | pKd [9]: 5.86 | % of control (CREB-binding protein): 30% | dTm [10]: 3.5 K | % of control [11]: 0.7%

Cc1c[nH]c2nccc(Oc3c(F)cc(Nc4cc(Cl)nc(N)n4)cc3F)c12 [BAY-549]
pKi [12]: 7.57 | pKi [13]: 7.41 | % of control [14]: 42% | % of control [15]: 0.7% | % of control [16]: 28% | % of control [17]: 36% | % of control [18]: 49%

Cc1cc(NC(=O)c2cccc(S(F)(F)(F)(F)F)c2)cc(-n2ccn3nc(-c4cccnc4)cc23)c1 [BAY-309]
pKi (D(2) dopamine receptor): < 5.00 | pKi [19]: < 5.00 | pKi [20]: < 5.00 | pKi [21]: 4.96 | % of control [22]: 0% | % of control [23]: 18% | pIC50 [24]: 5.15 | % of control [25]: 24% | % of control [26]: 23%
